# Measured values: patent US20230193341A1, “EXPRESSION SYSTEMS, RECOMBINANT CELLS AND USES THEREOF” (Selexis SA, priority 2018, published 2023)
# How the values were obtained:
# Type in all cases: cell-based, Chinese hamster
# [1] = tested on: exogenous PPARα; test: DTE (Infliximab) cells stably overexpressing mouse PPARα (PPARα_OE): gene expression (qRT-PCR) and IgG productivity
# Procedure: (§1) Antibiotic-selected DTE (Infliximab) cells were stably transfected with mouse PPARα or with an empty vector. Analyses of gene expression, IgG titer and cell viability were performed comparing DTE clone with empty vector cell and PPARα overexpressing cells (PPARα_OE). (A) Gene expression of PPARα targets, PPARα and IgG (qRT-PCR) in none-treated cells or cells treated with Bezafibrate (BEZA). Bezafibrate was added at 10 mM at day 1 of the fed-batch culture. RNA was extracted at day 6 of the fed-batch culture. Infliximab IgG specific productivity (B) and cell viability (C) are illustrated in non-selective or B5-starving media. Cells were cultured in 12 well-plate at a starting amount of 2*105 cell/ml in non-selective or B5 starving medium for 5 days, then transferred in non-selective media. IgG specific productivity (PCD) was then measured over 3 days of culture in non-selective media. Each measurement is the result of three independent cultures. Statistics: * P≤0.05 and ** P≤0.02 (t-test; 1 sided; unpaired sample, unequal variance).
# For quantitative PCR (qPCR) analysis, total RNA was extracted from […] and reverse transcribed into cDNA using the GoScript Reverse transcription System (Promega). Transcripts accumulation was quantified by qPCR using the LightCycler© 480 SYBR Green I Master and the LightCycler 480 II instrument (Roche). […]
# [2] = tested on: DTE cells; test: Bezafibrate treatment of DTE CHO cells: target gene induction, production and fitness
# Procedure: as §1
# (§2) Growth and IgG secretion performances in fed-batch culture were performed according to Le Fourn et al., 2013, with the following changes: IgG producing clone stably transfected for the expression of MIPs were seeded at 300′000 cells/ml in 5 mL culture medium in falcon of 50 mL. Viable cell density and IgG titer (g/L) were evaluated after 3, 6, 8, 9, 10 and 13 days.
# (§3) For quantitative PCR (qPCR) analysis, total RNA was extracted from […] and reverse transcribed into cDNA using the GoScript Reverse transcription System (Promega). Transcripts accumulation was quantified by qPCR using the LightCycler© 480 SYBR Green I Master and the LightCycler 480 II instrument (Roche). Transcript levels were normalized to that of SDHA housekeeping gene.
# [3] = tested on: ETE (Trastuzumab) cells; test: Fed-batch culture of ETE (Trastuzumab) CHO cells: IgG production and cell survival
# Procedure: (§4) (A) ETE clone (Trastuzumab) non-treated (Control) or treated with 10 mM Bezafibrate PPARα ligand after […] of fed-batch culture (+Bezafibrate). Candidate gene expression were quantified at day 6 by RT-qPCR. (B) ETE cells treated with 10 mM Bezafibrate after 1-day fed-batch, and IgG titer measured after 10 days. Data are means±SE from four independent experiments. * P≤0.05 and ** P≤0.02 (t-test; 2 sided; unpaired sample, unequal variance).
# The percentage of fluorescent cells and the fluorescence intensity of GFP positive cells were determined by flow cytometry analysis using a CyAn ADP flow cytometer (BECKMAN COULTER). Immunoglobulin concentrations in cell culture supernatants were measured by sandwich ELISA. GFP, IgG1Lc, IgG1Hc and MIP transcript accumulation was confirmed by RT-quantitative PCR assays before analyses.
# as §2
# [4] = tested on: PPAR target genes; test: RT-qPCR of candidate / PPAR target gene expression in ETE (Trastuzumab) clone in fed-batch culture; conditions: 10 mM Bezafibrate added after 3 days of fed-batch, RT-qPCR at day 6 (FIG. 6A)
# Procedure: as §4, §2, §3
smiles,measurement,setting,value
"CC(C)(Oc1ccc(CCNC(=O)c2ccc(Cl)cc2)cc1)C(=O)O [Bezafibrate, 2-[4-[2-(4-chlorobenzamido)ethyl]phenoxy]-2-methylpropanoic acid]",IgG productivity,[1]; PPARα_OE DTE (Infliximab) cells with bezafibrate (FIG. 7B),higher IgG productivity
same,"transcription of PPAR-target genes, RXR nuclear factor and IgG light and heavy chains","[1]; PPARα_OE DTE (Infliximab) cells, Bezafibrate 10 mM at day 1, RNA at day 6 of fed-batch (FIG. 7A)",induced the transcription of PPAR-target genes
same,cell production and fitness,[2],the cell production and fitness weren't improved
same,induction of PPAR target genes,[2],the same target genes are induced
same,"cell division, viability and recombinant protein production","[2]; increased bezafibrate concentration, data not shown",doesn't show any beneficial effect
same,recombinant protein (IgG titer) at the end of the fed-batch,"[3]; ETE cells, 10 mM Bezafibrate added at day 1 of fed-batch, IgG titer after 10 days (FIG. 6B)",beneficial for recombinant protein
same,"cell division, viability and recombinant protein production","[3]; ETE cells, increased bezafibrate concentration, data not shown",doesn't show any beneficial effect
same,cell survival under starvation stress during the fed-batch process,"[3]; addition at day 3 of the fed-batch, data not shown",significantly improved cell survival
same,IgG production,"[3]; addition at day 3 of the fed-batch, normal fed-batch conditions of feeding",no improvement of IgG production
same,expression of B5-target Slc22a14,[4],activated
same,expression of Cyp4a14,[4],not induced
same,"expression of PPAR target genes HmgCs2, Acot1, DBI1, AscI1 and RXR nuclear receptor",[4],induces PPAR target genes
